One experiment deals with human orexin 2 receptor (Homo sapiens (Human), UniProt O43614). Kind of experiment: Human orexin 2 receptor radioligand binding. Particulars: read-out: hOX2 Ki. The essentials: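 Ki derived from one-site competition IC50 using predetermined Kd of [3H]-EMPA, triplicate points, 2-20 runs averaged. Binding done on homogenized HEK293 cells stably expressing human orexin 2 receptor, DMSO ≤0.1%, with 10 μM almorexant defining nonspecific binding; filtered, washed, scintillation counted.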
human orexin 2 receptor, sequence (O43614 whole entry): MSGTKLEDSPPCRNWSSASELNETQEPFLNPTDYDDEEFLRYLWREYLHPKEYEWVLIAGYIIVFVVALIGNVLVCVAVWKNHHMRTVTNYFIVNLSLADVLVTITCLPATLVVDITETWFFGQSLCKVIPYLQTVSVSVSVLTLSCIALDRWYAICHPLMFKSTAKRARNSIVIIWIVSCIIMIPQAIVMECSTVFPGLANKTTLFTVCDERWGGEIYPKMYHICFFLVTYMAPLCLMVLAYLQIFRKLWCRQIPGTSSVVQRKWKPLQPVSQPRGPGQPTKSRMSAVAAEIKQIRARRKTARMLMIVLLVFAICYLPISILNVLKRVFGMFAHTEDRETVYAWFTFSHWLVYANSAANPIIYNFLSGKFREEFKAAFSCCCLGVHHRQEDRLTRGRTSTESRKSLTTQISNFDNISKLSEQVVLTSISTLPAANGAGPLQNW

For the next experiment, the target named is human orexin 1 receptor (Homo sapiens, UniProt O43613). Kind of experiment: Human orexin 1 receptor radioligand binding. To be noted: read-out: hOX1 Ki. The gist of the method:
(§1)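 Ki values derive from one-site competition IC50s corrected with the radioligand's predetermined Kd, triplicates per run, averaged over 2-20 runs. Cell homogenates (rat or human OX1R) compete against [^3H]-thiazolyl-oxadiazolyl-pyrrolidine methanone in PBS; 10 μM almorexant sets nonspecific binding; scintillation counting after washing.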

Another experiment addresses rat orexin 1 receptor (Rattus norvegicus, UniProt P56718). Kind of experiment: Rat orexin 1 receptor radioligand binding. Particulars: read-out: rOX1 Ki. The essentials: as §1
Where [1] appears, read: human orexin 2 receptor, averages of 2-20 runs.
The mark [2] stands for this setting: human orexin 1 receptor, averages of 2-20 runs.
Setting [3] is: rat orexin 1 receptor, averages of 2-20 runs.

Where two headings read alike, the source gives them in different places. Where only a bound is given, the exact number is not on record here.

By Ki is commonly meant a dissociation constant, usually derived from enzyme kinetics or from competition with a known ligand. For `O=C(c1cccc(F)c1-n1nccn1)N1C[C@H]2C[C@@H](Nc3nc4ccccc4o3)[C@@H]1C2` [Example 182, ((1S,4S,6R)-6-(benzo[d]oxazol-2-ylamino)-2-azabicyclo[2.2.1]heptan-2-yl)(3-fluoro-2-(2H-1,2,3-triazol-2-yl)phenyl)methanone], the figures for the Ki on human orexin 2 receptor (setting [1]), at human orexin 1 receptor (setting [2]) and at rat orexin 1 receptor (setting [3]) were 218 nM, 4 nM and 3 nM, respectively.

`O=C(c1cccc(F)c1-n1nccn1)N1C[C@H]2C[C@@H](Nc3ccc(C(F)(F)F)cn3)[C@@H]1C2` [Example 144, (3-fluoro-2-(2H-1,2,3-triazol-2-yl)phenyl)((1S,4S,6R)-6-((5-(trifluoromethyl)pyridin-2-yl)amino)-2-azabicyclo[2.2.1]heptan-2-yl)methanone]: the Ki at human orexin 2 receptor (setting [1]) is 133 nM; at human orexin 1 receptor (setting [2]), 3 nM; on rat orexin 1 receptor (setting [3]), 3 nM.

In the case of `O=C(c1cccc(F)c1-c1ncc(F)cn1)N1C[C@@H]2CC[C@H]1[C@H](Oc1ccc(C(F)(F)F)cn1)C2` [Example 263, (3-fluoro-2-(5-fluoropyrimidin-2-yl)phenyl)((1S,4R,6R)-6-((5-(trifluoromethyl)pyridin-2-yl)oxy)-2-azabicyclo[2.2.2]octan-2-yl)methanone], the figures for the Ki at human orexin 2 receptor (setting [1]), at human orexin 1 receptor (setting [2]) and on rat orexin 1 receptor (setting [3]) were 1100 nM, 9 nM and 11 nM, respectively.

`Cc1nc(C(=O)N2CC3CC(Oc4ccc(C(F)(F)F)cn4)C2C3)c(-c2ccc(F)cc2)s1` (racemic) [Example 5, (R/S)-(5-(4-fluorophenyl)-2-methylthiazol-4-yl)(6-((5-(trifluoromethyl)pyridin-2-yl)oxy)-2-azabicyclo[2.2.1]heptan-2-yl)methanone]: the Ki came to 779 nM on human orexin 2 receptor (setting [1]), 18 nM on human orexin 1 receptor (setting [2]) and 25 nM on rat orexin 1 receptor (setting [3]).

For the compound `Cc1cnc(-c2ncccn2)c(C(=O)N2C[C@H]3C[C@@H](Oc4ccc(C(F)(F)F)cn4)[C@@H]2C3)c1` [Example 290, (5-methyl-2-(pyrimidin-2-yl)pyridin-3-yl)((1S,4R,6R)-6-((5-(trifluoromethyl)pyridin-2-yl)oxy)-2-azabicyclo[2.2.1]heptan-2-yl)methanone], the Ki at human orexin 2 receptor (setting [1]) is > 10000 nM; at human orexin 1 receptor (setting [2]) it was 188 nM; at rat orexin 1 receptor (setting [3]) it was 97 nM.

With `O=C(c1c(F)cccc1-c1ncccn1)N1C[C@@H]2CC[C@H]1[C@H](Nc1cnc(C(F)(F)F)cn1)C2` [Example 279, (2-fluoro-6-(pyrimidin-2-yl)phenyl)((1S,4R,6R)-6-((5-(trifluoromethyl)pyrazin-2-yl)amino)-2-azabicyclo[2.2.2]octan-2-yl)methanone], the Ki on human orexin 2 receptor (setting [1]) was 177 nM; at human orexin 1 receptor (setting [2]), 13 nM; at rat orexin 1 receptor (setting [3]), 11 nM.

Turning to `COc1ccc(N[C@@H]2C[C@H]3C[C@@H]2N(C(=O)c2ccccc2-n2nccn2)C3)nc1` [Example 175, (2-(2H-1,2,3-triazol-2-yl)phenyl)((1S,4S,6R)-6-((5-methoxypyridin-2-yl)amino)-2-azabicyclo[2.2.1]heptan-2-yl)methanone], the Ki was 844 nM at human orexin 2 receptor (setting [1]), 191 nM on human orexin 1 receptor (setting [2]) and 170 nM at rat orexin 1 receptor (setting [3]).

As for `O=C(c1cccc(F)c1-c1ncccn1)N1C[C@H]2C[C@@H](Oc3ccc(Cl)cn3)[C@@H]1C2` [Example 115, ((1S,4R,6R)-6-((5-chloropyridin-2-yl)oxy)-2-azabicyclo[2.2.1]heptan-2-yl)(3-fluoro-2-(pyrimidin-2-yl)phenyl)methanone], the values for the Ki on human orexin 2 receptor (setting [1]), at human orexin 1 receptor (setting [2]) and on rat orexin 1 receptor (setting [3]) were 852 nM, 8 nM and 7 nM, respectively.

For the compound `Cc1cnc(C(=O)N2C[C@H]3C[C@@H](Oc4ccc(C(F)(F)F)cn4)[C@@H]2C3)c(-n2ccnn2)c1` [Example 294], the Ki at human orexin 2 receptor (setting [1]) is 1400 nM; at human orexin 1 receptor (setting [2]), 580 nM; on rat orexin 1 receptor (setting [3]) it was 166 nM.

As to `Cc1ccc(-n2nccn2)c(C(=O)N2C[C@H]3C[C@@H](Oc4ccc(C(F)F)cn4)[C@@H]2C3)n1` [Example 122, ((1S,4R,6R)-6-((5-(difluoromethyl)pyridin-2-yl)oxy)-2-azabicyclo[2.2.1]heptan-2-yl)(6-methyl-3-(2H-1,2,3-triazol-2-yl)pyridin-2-yl)methanone], the Ki on human orexin 2 receptor (setting [1]) worked out at 218 nM; at human orexin 1 receptor (setting [2]) it was 30 nM; at rat orexin 1 receptor (setting [3]), 28 nM.

With `O=C(c1ccc(F)cc1-c1ncccn1)N1C[C@H]2C[C@@H](Oc3ccc(Br)cn3)[C@@H]1C2` [Example 110, ((1S,4R,6R)-6-((5-bromopyridin-2-yl)oxy)-2-azabicyclo[2.2.1]heptan-2-yl)(4-fluoro-2-(pyrimidin-2-yl)phenyl)methanone], the Ki at human orexin 2 receptor (setting [1]) stood at 1200 nM; on human orexin 1 receptor (setting [2]), 11 nM; on rat orexin 1 receptor (setting [3]), 6 nM.

`O=C(c1cc(F)ccc1-n1nccn1)N1C[C@H]2C[C@@H](Nc3ncc(C(F)(F)F)cn3)[C@@H]1C2` [Example 225, (5-fluoro-2-(2H-1,2,3-triazol-2-yl)phenyl)((1S,4S,6R)-6-((5-(trifluoromethyl)pyrimidin-2-yl)amino)-2-azabicyclo[2.2.1]heptan-2-yl)methanone]: the figures for the Ki on human orexin 2 receptor (setting [1]), on human orexin 1 receptor (setting [2]) and on rat orexin 1 receptor (setting [3]) were 800 nM, 16 nM and 20 nM, respectively.

Turning to `O=C(c1cccc(F)c1-n1nccn1)N1C[C@H]2C[C@@H](Nc3cnc(C(F)(F)F)cn3)[C@@H]1C2` [Example 192, (3-fluoro-2-(2H-1,2,3-triazol-2-yl)phenyl)((1S,4S,6R)-6-((5-(trifluoromethyl)pyrazin-2-yl)amino)-2-azabicyclo[2.2.1]heptan-2-yl)methanone], the Ki on human orexin 2 receptor (setting [1]) worked out at 249 nM; at human orexin 1 receptor (setting [2]), 7 nM; on rat orexin 1 receptor (setting [3]), 8 nM.

As to `O=C(c1ccccc1-n1nccn1)N1C[C@H]2C[C@@H](Nc3ccc(C(F)(F)F)nn3)[C@@H]1C2` [Example 242, (2-(2H-1,2,3-triazol-2-yl)phenyl)((1S,4S,6R)-6-((6-(trifluoromethyl)pyridazin-3-yl)amino)-2-azabicyclo[2.2.1]heptan-2-yl)methanone], the results for the Ki on human orexin 2 receptor (setting [1]), at human orexin 1 receptor (setting [2]) and at rat orexin 1 receptor (setting [3]) were 2100 nM, 113 nM and 89 nM, respectively.

Turning to `Cc1ccc(-n2nccn2)c(C(=O)N2C[C@@H]3CC[C@H]2[C@H](Oc2ccc(C(F)(F)F)cn2)C3)n1` [Example 76, (6-methyl-3-(2H-1,2,3-triazol-2-yl)pyridin-2-yl)((1S,4R,6R)-6-((5-(trifluoromethyl)pyridin-2-yl)oxy)-2-azabicyclo[2.2.2]octan-2-yl)methanone], the inhibitory constant (Ki) turned out to be 211 nM on human orexin 2 receptor, 3 nM on human orexin 1 receptor and 4 nM on rat orexin 1 receptor.

Take `O=C(c1cccc(F)c1-n1nccn1)N1C[C@H]2C[C@@H](Nc3ncc(C(F)(F)F)cn3)[C@@H]1C2` [Example 223, (3-fluoro-2-(2H-1,2,3-triazol-2-yl)phenyl)((1S,4S,6R)-6-((5-(trifluoromethyl)pyrimidin-2-yl)amino)-2-azabicyclo[2.2.1]heptan-2-yl)methanone]: the Ki at human orexin 2 receptor (setting [1]) amounted to 619 nM; at human orexin 1 receptor (setting [2]) it was 6 nM; at rat orexin 1 receptor (setting [3]) it was 11 nM.

For the compound `O=C(c1c(F)cccc1-c1ncccn1)N1C[C@H]2C[C@@H](Nc3ccc(Br)cn3)[C@@H]1C2` [Example 168, ((1S,4S,6R)-6-((5-bromopyridin-2-yl)amino)-2-azabicyclo[2.2.1]heptan-2-yl)(2-fluoro-6-(pyrimidin-2-yl)phenyl)methanone], the Ki on human orexin 2 receptor (setting [1]) amounted to 351 nM; on human orexin 1 receptor (setting [2]), 4 nM; at rat orexin 1 receptor (setting [3]) it was 2 nM.

Consider `O=C(c1cccc(F)c1-c1ncccn1)N1C[C@H]2C[C@@H](Nc3cnc(C(F)(F)F)cn3)[C@@H]1C2` [Example 67, (3-fluoro-2-(pyrimidin-2-yl)phenyl)((1S,4S,6R)-6-((5-(trifluoromethyl)pyrazin-2-yl)amino)-2-azabicyclo[2.2.1]heptan-2-yl)methanone], for which the Ki on human orexin 2 receptor (setting [1]) is 264 nM; at human orexin 1 receptor (setting [2]) it was 7 nM; at rat orexin 1 receptor (setting [3]), 7 nM.

For the compound `O=C(c1cccc(F)c1-c1ncccn1)N1C[C@H]2C[C@@H](N(CC3CC3)c3cnc(C(F)(F)F)cn3)[C@@H]1C2` [Example 211, ((1S,4S,6R)-6-((cyclopropylmethyl)(5-(trifluoromethyl)pyrazin-2-yl)amino)-2-azabicyclo[2.2.1]heptan-2-yl)(3-fluoro-2-(pyrimidin-2-yl)phenyl)methanone], the Ki was 1300 nM on human orexin 2 receptor (setting [1]), 16 nM at human orexin 1 receptor (setting [2]) and 31 nM at rat orexin 1 receptor (setting [3]).

For the compound `O=C(c1nccnc1-c1ccccc1)N1C[C@H]2C[C@@H](Nc3cnc(C(F)(F)F)cn3)[C@@H]1C2` [Example 205, (3-phenylpyrazin-2-yl)((1S,4S,6R)-6-((5-(trifluoromethyl)pyrazin-2-yl)amino)-2-azabicyclo[2.2.1]heptan-2-yl)methanone], the Ki on human orexin 2 receptor (setting [1]) was 846 nM; on human orexin 1 receptor (setting [2]), 35 nM; on rat orexin 1 receptor (setting [3]), 51 nM.

Consider “(3-fluoro-2-(pyrimidin-2-yl)phenyl)((1S,4R,6R)-6-((5-(trifluoromethyl)pyrazin-2-yl)amino)-2-azabicyclo[2.2.2]octan-2-yl)methanone [Example 80]”, for which the Ki on human orexin 2 receptor (setting [1]) worked out at 456 nM; at human orexin 1 receptor (setting [2]) it was 7 nM; at rat orexin 1 receptor (setting [3]), 9 nM.

In the case of `O=C(c1cccc(F)c1-c1ncccn1)N1C[C@H]2C[C@@H](Oc3ncc(C(F)(F)F)cc3F)[C@@H]1C2` [Example 100, (3-fluoro-2-(pyrimidin-2-yl)phenyl)((1S,4R,6R)-6-((3-fluoro-5-(trifluoromethyl)pyridin-2-yl)oxy)-2-azabicyclo[2.2.1]heptan-2-yl)methanone], the Ki amounted to 1600 nM at human orexin 2 receptor (setting [1]), 12 nM on human orexin 1 receptor (setting [2]) and 13 nM at rat orexin 1 receptor (setting [3]).

The values are drawn from patent US9611277B2 (Janssen Pharmaceutica NV, priority 2013, dated 2017).
